Measurements from patent publication US5872104A, “Combinations and methods for reducing antimicrobial resistance” (Oridigm Corporation, priority 1994, dated 1999).
Where two headings read alike, the source gives them in different places.

Columns and labels:
human retrovirus = conditions: cited from earlier work
[1] = tested on: vesicular stomatitis virus; conditions: primary rabbit kidney cells; cited from earlier work
SAH hydrolase = conditions: cited from earlier work; for Ki: De Clercq & Cools (1985)
[2] = tested on: tumor-derived methionine adenosyltransferases; conditions: cited from earlier work
SAHH hydrolase = conditions: cited from earlier work
tRNA methylases = conditions: cited from earlier work
[3] = tested on: vaccinia virion mRNA(guanine-7)methyltransferase; conditions: 100 μM; cited from earlier work
SAM synthetase = conditions: cited from earlier work
[4] = tested on: RNA methyltransferase from Streptomyces antibioticus; conditions: 100 μM; cited from earlier work
methyl transfer from SAM = conditions: cited from earlier work
L1210 cells = conditions: absence of polyamine depletion; cited from earlier work
[5] = tested on: S. aureus 27660 (erythromycin resistant); type: cell-based; conditions: in combination with erythromycin
[6] = mice, cited from earlier work

In the case of `Nc1nccc2c1ncn2[C@@H]1C[C@H](CO)[C@@H](O)[C@H]1O` [carbocyclic 3-deazaadenosine, carbocyclic-3-deazaadenosine], the effective inhibitory concentration (human retrovirus) is listed as about 1.4 µg/mL, the “minimum inhibitor concentration (50% reduction of cytopathogenicity)” value [1] is listed as 0.2 µg/mL and the Ki (SAH hydrolase) is listed as 13 nM.

In the case of `C/C(Cl)=C/C[C@H](N)C(=O)O` [(Z)-L-2-amino-5-chloro-trans-4-hexanoic acid], the inhibition [2] is given as “effective inhibitors”.

In the case of `Nc1ncnc2c1ncn2[C@@H]1CC[C@@H](O)[C@H]1O` [DHCaA, dihydroxycyclopentanyladenine], the “antiviral activity and cytotoxicity vs first generation” value (SAHH hydrolase) is listed as “retained antiviral activity and considerably lower cytotoxicity than their parent first generation inhibitors”.

In the case of `Nc1nc(N)c2ncn([C@@H]3C[C@H](O)[C@@H](O)[C@H]3O)c2n1` (relative stereo) [2,6-diamino-analogue], the SAH hydrolase inhibition (SAH hydrolase) is listed as “inhibitors of SAHH”.

For `Nc1ncnc2nc[nH]c12.O=P(O)(O)O` [adenine phosphate], the “inhibition of tRNA methylases” value (tRNA methylases) is given as “gave inhibition that would be acceptable”.

For `Nc1ncnc2c1ncn2[C@@H]1C[C@H](CSCC[C@H](N)C(=O)O)[C@@H](O)[C@H]1O` [S-aristeromycinyl-L-homocysteine], the inhibition [3] is listed as 66%.

In the case of `Nc1nc(F)nc2c1ncn2[C@@H]1O[C@H](CSCCC(N)C(=O)O)[C@@H](O)[C@H]1O` (stereo partly drawn) [2-FSAH, 2-fluoro-S-adenosylhomocysteine], the SAH hydrolase inhibition (SAH hydrolase) is given as “effective inhibitor of SAHH”.

For `NC1(C(=O)O)CC2CCC2C1` (stereo not drawn) [3-aminobicyclo[3.2.0]heptane-3-carboxylic acid], the SAM synthetase inhibition (SAM synthetase) is listed as “effective inhibitors”.

For `Nc1ncnc2c1ncn2C[C@H](O)CO` [(S)-DHPA, 9(S)-(2,3-dihydroxypropyl)adenine], the effective inhibitory concentration (human retrovirus) is given as “about 60 μg/ml”, the “minimum inhibitor concentration (50% reduction of cytopathogenicity)” value [1] is given as 20 µg/mL and the Ki (SAH hydrolase) is given as 1400 nM.

In the case of `CC(C)COC(=O)C(O)Cn1cnc2c(N)ncnc21` (racemic) [(RS)-AHPA isobutyl ester], the effective inhibitory concentration (human retrovirus) is given as about 1.2 µg/mL, the activity index (human retrovirus; in vitro cytotoxicity vs activity) is given as 80 and the “minimum inhibitor concentration (50% reduction of cytopathogenicity)” value [1] is given as 2 µg/mL.

In the case of `Nc1ncnc2c1ncn2C1OC(CC2CCC(N)C(=O)N2)C(O)C1O` (stereo not drawn) [cyclosinefungin], the inhibition [4] is given as 50%.

In the case of `CS/C=C\[C@H](N)C(=O)O` (stereo in doubt) [L-cis-AMTB, L-2-amino-4-methylthio-cis-but-3-enoic acid], the “inhibitory potency relative to L-cis-AMB” value (SAM synthetase) is given as “slightly less inhibitory than L-cis-AMB”.

For `CC[Se]CCC(N)C(=O)O` (racemic) [seleno-DL-ethionine], the inhibition [2] is listed as “effective inhibitors”.

In the case of `Nc1ncnc2c1ncn2CC(O)C(=O)O` (racemic) [(RS)-AHPA, (R,S)-3-adenine-9-yl-2-hydroxypropanocic acid], the Ki (SAH hydrolase) is given as 73 nM.

In the case of `NC1(C(=O)O)CC2CC1C1CCCC21` [(1R,2R,4S) isomer of 2-amino-5,6-exo-trimethylenenorbornane-2-carboxylic acid, 2-amino-5,6-exo-trimethylenenorbornane-2-carboxylic acid], the SAM synthetase inhibition (SAM synthetase) is given as “effective inhibitors”.

In the case of `Nc1ncnc2c1ncn2[C@@H]1O[C@H](C[S+]([O-])CC[C@H](N)C(=O)O)[C@@H](O)[C@H]1O` (stereo partly drawn) [S-adenosyl-L-homocysteine sulfoxide], the inhibition [3] is given as 47%.

In the case of `C[S+](CCCN)C[C@H]1O[C@@H](n2cnc3c(N)ncnc32)[C@H](O)[C@@H]1O` (stereo partly drawn) [S-adenosyl-(5')-3-methylthio-propylamine], the inhibition (methyl transfer from SAM) is listed as “effective inhibitors”.

In the case of `C[Se]CC[C@H](N)C(=O)O` [selenomethionine], the IC50 (L1210 cells) is given as 130000 nM.

In the case of `Nc1nccc2c1ncn2[C@@H]1C=C[C@@H](O)[C@H]1O` [c^3 -DHCeA, dihydroxycyclopentenyl-3-deazaadenine], the “antiviral activity and cytotoxicity vs first generation” value (SAHH hydrolase) is given as “retained antiviral activity and considerably lower cytotoxicity than their parent first generation inhibitors”.

In the case of `Nc1ncnc2c1ncn2[C@H]1C[C@H](O)[C@@H](CO)O1` [2'-deoxyadenosine], the “enhanced killing with erythromycin” value [5] is given as “enhanced the killing” and the SAH hydrolase inhibition (SAH hydrolase) is given as “suicide inactivators of SAH hydrolase”.

In the case of `Nc1nccc2c1ncn2[C@@H]1CC[C@@H](O)[C@H]1O` [c^3 -DHCaA, dihydroxycyclopentanyl-3-deazaadenine], the “antiviral activity and cytotoxicity vs first generation” value (SAHH hydrolase) is listed as “retained antiviral activity and considerably lower cytotoxicity than their parent first generation inhibitors”.

In the case of `NC1(C(=O)O)CCCCC1` [1-aminocyclohexanecarboxylic acid], the inhibition [2] is given as “effective inhibitors”.

For `CSCSC[C@H]1O[C@@H](n2cnc3c(N)ncnc32)[C@H](O)[C@@H]1O` [5'-S-methylthiomethyladenosine], the inhibition [4] is given as 65%.

For `Nc1ncnc2nc[nH]c12.O=S(=O)(O)O` [adenine sulfate], the “inhibition of tRNA methylases” value (tRNA methylases) is listed as “gave inhibition that would be acceptable”.

For 6-methoxyadenine, the “inhibition of tRNA methylases” value (tRNA methylases) is listed as “possible exceptions”.

In the case of `CC=CC[C@H](N)C(=O)O` [L-2-amino-4-hexanoic acid], the inhibition [2] is given as “effective inhibitors”.

In the case of `Nc1ncnc2c1ncn2[C@@H]1C=C[C@@H](O)[C@H]1O` [DHCeA, dihydroxycyclopentenyladenine], the “antiviral activity and cytotoxicity vs first generation” value (SAHH hydrolase) is given as “retained antiviral activity and considerably lower cytotoxicity than their parent first generation inhibitors”.

In the case of `NC(C(=O)O)C1CCCC1` (stereo not drawn) [cyclopentaneglycine], the SAM synthetase inhibition (SAM synthetase) is given as “effective inhibitors”.

For `Nc1ncnc2c1ncn2[C@@H]1O[C@H](CO)[C@@H](O)[C@@H]1O` [Ara-A, 9-β-arabinofuranosyladenine], the “enhanced killing with erythromycin” value [5] is given as “enhanced the killing”, the LD50 ([6]; i.p.) is given as 4,677 mg/kg and the LD50 ([6]; orally) is given as 7,950 mg/kg. The SAH hydrolase inhibition (SAH hydrolase) was “suicide inactivators of SAH hydrolase” and the “activity relative to 2'-deoxyadenosine” value (SAH hydrolase; suicide inactivation of SAH hydrolase) was “twice as active as 2'-deoxyadenosine”.

In the case of `NC1(C(=O)O)CCC1` [1-aminocyclobutanecarboxylic acid], the inhibition [2] is given as “effective inhibitors”.

In the case of `Nc1nccc2c1ncn2[C@@H]1O[C@H](CSCC[C@H](N)C(=O)O)[C@@H](O)[C@H]1O` [S-(3-deazaadenosyl)-L-homocysteine], the inhibition [3] is given as 84%.

In the case of 6-mercaptoadenine, the “inhibition of tRNA methylases” value (tRNA methylases) is listed as “gave inhibition that would be acceptable”.

In the case of `N[C@]1(C(=O)O)C[C@H]2CC[C@@H]1C2` [(1R,2R,4S) isomer of 2-aminonorbornane-2-carboxylic acid, 2-aminonorbornane-2-carboxylic acid], the SAM synthetase inhibition (SAM synthetase) is listed as “effective inhibitors”.

In the case of `CN(C)c1ncnc2[nH]cnc12` [6-dimethyladenine], the “inhibition of tRNA methylases” value (tRNA methylases) is given as “possible exceptions”.

For `Nc1ncnc2c1ncn2[C@@H]1O[C@H](CS(=O)(=O)CC[C@H](N)C(=O)O)[C@@H](O)[C@H]1O` [S-adenosyl-L-homocysteine sulfone], the inhibition [3] is given as 40%.

For `CC1(C)N=C(N)N=C(N)N1c1ccc(CCCCc2ccc(S(=O)(=O)F)cc2Cl)c(Cl)c1` [NSC 127755], the “s.c. toxicity (LD100)” value ([6]; s.c.) is given as at least 156 mg/kg.

For `Nc1c2nc[nH]c2nc[n+]1[O-]` [adenine-N^1 -oxide], the “inhibition of tRNA methylases” value (tRNA methylases) is listed as “gave inhibition that would be acceptable”.

For `CNc1ncnc2[nH]cnc12` [6-methyladenine], the “inhibition of tRNA methylases” value (tRNA methylases) is listed as “gave inhibition that would be acceptable”.

For `C[S+](CC[C@H](N)C(=O)O)C[C@H]1O[C@@H](n2cnc3c(=O)[nH]cnc32)[C@H](O)[C@@H]1O` (stereo partly drawn) [S-inosyl-L-methionine], the inhibition (methyl transfer from SAM) is listed as “effective inhibitors”.

For `CCSCC[C@H](N)C(=O)O` [L-ethionine], the inhibition [2] is listed as “effective inhibitors”.
